Laboratory results as given in ChEMBL document CHEMBL1127385, “Synthesis and diuretic activity of alkyl- and arylguanidine analogs of N,N'-dicyclohexyl-4-morpholinecarboxamidine in rats and dogs” (J Med Chem, 1994).
One block for each molecule: values may come before it.

Assays:
Rattus norvegicus [1] = experiment: Ratio of Total electrolytic excretion of sodium and potassium in urine of rats after peroral administration of 28.2 uM/Kg of drug; type: ADME, organism-based; settings: in vivo, po
Rattus norvegicus [2] = experiment: Total electrolytic excretion of chlorine in urine of rats after peroral administration of 282 uM/Kg of drug; type: ADME, organism-based; settings: in vivo, po
Rattus norvegicus [3] = experiment: Total electrolytic excretion of chlorine in urine of rats after peroral administration of 28.2 uM/Kg of drug; type: ADME, organism-based; settings: in vivo, po
Rattus norvegicus [4] = experiment: Total electrolytic excretion of sodium in urine of rats after peroral administration of 84.5 uM/Kg of drug; type: ADME, organism-based; settings: in vivo, po
Rattus norvegicus [5] = experiment: Total electrolytic excretion of sodium in urine of rats after peroral administration of 282 uM/Kg of drug; type: ADME, organism-based; settings: in vivo, po
Rattus norvegicus [6] = experiment: Ratio of Total electrolytic excretion of sodium and potassium in urine of rats after peroral administration of 84.5 uM/Kg of drug; type: ADME, organism-based; settings: in vivo, po
Rattus norvegicus [7] = experiment: Total electrolytic excretion of potassium in urine of rats after peroral administration of 282 uM/Kg of drug; type: ADME, organism-based; settings: in vivo, po
Rattus norvegicus [8] = experiment: Tested for the diuretic activity by measuring the urinary volume after peroral administering 282 uM/Kg of drug in rats; type: ADME, organism-based, Urine; settings: in vivo, po
Rattus norvegicus [9] = experiment: Ratio of Total electrolytic excretion of sodium and potassium in urine of rats after peroral administration of 282 uM/Kg of drug; type: ADME, organism-based; settings: in vivo, po
Rattus norvegicus [10] = experiment: Total electrolytic excretion of potassium in urine of rats after peroral administration of 28.2 uM/Kg of drug; type: ADME, organism-based; settings: in vivo, po
Rattus norvegicus [11] = experiment: Tested for the diuretic activity by measuring the urinary volume after peroral administering 84.5 uM/Kg of drug in rats; type: ADME, organism-based, Urine; settings: in vivo, po
Rattus norvegicus [12] = experiment: Total electrolytic excretion of chlorine in urine of rats after peroral administration of 84.5 uM/Kg of drug; type: ADME, organism-based; settings: in vivo, po
Rattus norvegicus [13] = experiment: Total electrolytic excretion of sodium in urine of rats after peroral administration of 28.2 uM/Kg of drug; type: ADME, organism-based; settings: in vivo, po
Rattus norvegicus [14] = experiment: Tested for the diuretic activity by measuring the urinary volume after peroral administering 28.2 uM/Kg of drug in rats; type: ADME, organism-based, Urine; settings: in vivo, po
Rattus norvegicus [15] = experiment: Total electrolytic excretion of potassium in urine of rats after peroral administration of 84.5 uM/Kg of drug; type: ADME, organism-based; settings: in vivo, po
Rattus norvegicus [16] = experiment: Ratio of Total electrolytic excretion of sodium and potassium in urine of rats after intravenous administration of 8.47 uM/Kg of drug; type: ADME, organism-based; settings: in vivo
Rattus norvegicus [17] = experiment: Tested for the diuretic activity by measuring the urinary volume after peroral administering 84.7 uM/Kg of drug in rats; type: ADME, organism-based, Urine; settings: in vivo, po
Canis familiaris [18] = experiment: Total electrolytic excretion of potassium in urine of dogs after intravenous administration of 8.47 uM/Kg of drug; type: ADME, organism-based, Canis lupus familiaris; settings: dog, in vivo
Rattus norvegicus [19] = experiment: Total electrolytic excretion of chlorine in urine of rats after peroral administration of 28.22 uM/Kg of drug; type: ADME, organism-based; settings: in vivo, po
Rattus norvegicus [20] = experiment: Total electrolytic excretion of potassium in urine of rats after peroral administration of 28.22 uM/Kg of drug; type: ADME, organism-based; settings: in vivo, po
Canis familiaris [21] = experiment: Tested for the diuretic activity by measuring the urinary volume after intravenous administering 8.47 uM/Kg of drug in dogs; type: ADME, organism-based, Canis lupus familiaris, Urine; settings: dog, in vivo
Canis familiaris [22] = experiment: Total electrolytic excretion of chlorine in urine of dogs after intravenous administration of 8.47 uM/Kg of drug; type: ADME, organism-based, Canis lupus familiaris; settings: dog, in vivo
Rattus norvegicus [23] = experiment: Ratio of Total electrolytic excretion of sodium and potassium in urine of rats after peroral administration of 84.7 uM/Kg of drug; type: ADME, organism-based; settings: in vivo, po
Rattus norvegicus [24] = experiment: Total electrolytic excretion of potassium in urine of rats after peroral administration of 84.7 uM/Kg of drug; type: ADME, organism-based; settings: in vivo, po
Rattus norvegicus [25] = experiment: Total electrolytic excretion of sodium in urine of rats after peroral administration of 84.7 uM/Kg of drug; type: ADME, organism-based; settings: in vivo, po
Rattus norvegicus [26] = experiment: Total electrolytic excretion of chlorine in urine of rats after peroral administration of 84.7 uM/Kg of drug; type: ADME, organism-based; settings: in vivo, po
Canis familiaris [27] = experiment: Total electrolytic excretion of sodium in urine of dogs after intravenous administration of 8.47 uM/Kg of drug; type: ADME, organism-based, Canis lupus familiaris; settings: dog, in vivo

Ratio (Rattus norvegicus [1]): 4
Excretion Cl- (Rattus norvegicus [2]): 0.77 m equiv
Excretion Cl- (Rattus norvegicus [3]): 1.18 m equiv
Excretion Na+ (Rattus norvegicus [4]): 1.33 m equiv
Excretion Na+ (Rattus norvegicus [5]): 0.76 m equiv
Ratio (Rattus norvegicus [6]): 3.8
Excretion K+ (Rattus norvegicus [7]): 0.21 m equiv
V (Rattus norvegicus [8]): 3.7 mL
Ratio (Rattus norvegicus [9]): 3.7
Excretion K+ (Rattus norvegicus [10]): 0.29 m equiv
V (Rattus norvegicus [11]): 7.4 mL
Excretion Cl- (Rattus norvegicus [12]): 1.46 m equiv
Excretion Na+ (Rattus norvegicus [13]): 1.13 m equiv
V (Rattus norvegicus [14]): 6.5 mL
Excretion K+ (Rattus norvegicus [15]): 0.35 m equiv
SMILES: C1CCC(/N=C(/NC2CCCCC2)N2CCCCC2)CC1

Ratio (Rattus norvegicus [1]): 3.3
Excretion Cl- (Rattus norvegicus [2]): 1.7 m equiv
Ratio (Rattus norvegicus [16]): 5.7
V (Rattus norvegicus [17]): 13.6 mL
Excretion Na+ (Rattus norvegicus [5]): 2.05 m equiv
Excretion K+ (Rattus norvegicus [7]): 0.24 m equiv
Excretion K+ (Canis familiaris [18]): 1.1 m equiv
V (Rattus norvegicus [8]): 16.2 mL
Excretion Cl- (Rattus norvegicus [19]): 1.32 m equiv
Ratio (Rattus norvegicus [9]): 8.5
Excretion K+ (Rattus norvegicus [20]): 0.39 m equiv
V (Canis familiaris [21]): 58 mL
Excretion Cl- (Canis familiaris [22]): 5.7 m equiv
Ratio (Rattus norvegicus [23]): 4
Excretion K+ (Rattus norvegicus [24]): 0.48 m equiv
Excretion Na+ (Rattus norvegicus [25]): 1.9 m equiv
Excretion Cl- (Rattus norvegicus [26]): 1.82 m equiv
Excretion Na+ (Rattus norvegicus [13]): 1.29 m equiv
V (Rattus norvegicus [14]): 9.2 mL
Excretion Na+ (Canis familiaris [27]): 6 m equiv
SMILES: Fc1ccc(/N=C(/Nc2ccc(F)cc2)N2CCOCC2)cc1
